Assay results published in the supplement of paper PMC10307832.

Key:
Assay in all cases: relative viability (nuclei count vs DMSO), 5 days (fraction); higher = more cells survive
[1] = compound: Cn1cncc1[C@@](N)(c1ccc(Cl)cc1)c1ccc2c(c1)c(-c1cccc(Cl)c1)cc(=O)n2C [Tipifarnib] + CC(C)C[C@H](NC(=O)[C@H](Cc1ccccc1)NC(=O)c1cnccn1)B(O)O [Bortezomib] (partner 0.002 µM)
Method in brief: (§1)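 The day after seeding in 1536-well plates, lung cancer cell lines were treated by pin tool with a single drug, or with a fixed anchor-drug dose together with five library-drug doses (not always all listed) in √10 steps. After 5 days, a combined fix-and-stain solution (final 0.05% Triton X-100, 1% formaldehyde, 1 ug/ml Hoechst) was added. Nuclei counted on 4× images gave relative viability as treated counts over vehicle counts, reported as the median of duplicate plates.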

[2] = compound: Cn1cncc1[C@@](N)(c1ccc(Cl)cc1)c1ccc2c(c1)c(-c1cccc(Cl)c1)cc(=O)n2C [Tipifarnib] + CC(=O)Nc1cccc(-n2c(=O)n(C3CC3)c(=O)c3c(Nc4ccc(I)cc4F)n(C)c(=O)c(C)c32)c1 [Trametinib] (partner 0.02 µM)
Method in brief: as §1

[3] = compound: Cn1cncc1[C@@](N)(c1ccc(Cl)cc1)c1ccc2c(c1)c(-c1cccc(Cl)c1)cc(=O)n2C [Tipifarnib] + O=C(c1cc(Cc2n[nH]c(=O)c3ccccc23)ccc1F)N1CCN(C(=O)C2CC2)CC1 [Olaparib] (partner 8 µM)
Method in brief: as §1

[4] = compound: Cn1cncc1[C@@](N)(c1ccc(Cl)cc1)c1ccc2c(c1)c(-c1cccc(Cl)c1)cc(=O)n2C [Tipifarnib] + CS(=O)(=O)N1CCN(Cc2cc3nc(-c4cccc5[nH]ncc45)nc(N4CCOCC4)c3s2)CC1 [Pictilisib] (partner 1 µM)
Method in brief: as §1

Row | Cell Line | relative viability ([1]; first compound 0.01 µM) | relative viability ([1]; first compound 0.03162 µM) | relative viability ([1]; first compound 0.1 µM) | relative viability ([1]; first compound 0.3162 µM) | relative viability ([1]; first compound 1 µM) | relative viability ([2]; first compound 0.01 µM) | relative viability ([2]; first compound 0.03162 µM) | relative viability ([2]; first compound 0.1 µM) | relative viability ([2]; first compound 0.3162 µM) | relative viability ([2]; first compound 1 µM) | relative viability ([3]; first compound 0.01 µM) | relative viability ([3]; first compound 0.03162 µM) | relative viability ([3]; first compound 0.1 µM) | relative viability ([3]; first compound 0.3162 µM) | relative viability ([3]; first compound 1 µM) | relative viability ([4]; first compound 0.01 µM) | relative viability ([4]; first compound 0.03162 µM) | relative viability ([4]; first compound 0.1 µM) | relative viability ([4]; first compound 0.3162 µM) | relative viability ([4]; first compound 1 µM)
1 | NCI-H1734 | 0.953 | 0.764 | 0.724 | 0.502 | 0.385 | 0.66 | 0.555 | 0.556 | 0.478 | 0.407 | 0.626 | 0.615 | 0.54 | 0.494 | 0.482 | 0.486 | 0.356 | 0.38 | 0.331 | 0.346
2 | NCI-H1755 | 0.987 | 0.835 | 0.848 | 0.821 | 0.626 | 0.793 | 0.732 | 0.718 | 0.723 | 0.714 | 0.869 | 0.86 | 0.875 | 0.891 | 0.898 | 0.466 | 0.358 | 0.423 | 0.344 | 0.274
3 | NCI-H1792 | 0.967 | 0.877 | 0.661 | 0.621 | 0.432 | 0.409 | 0.241 | 0.246 | 0.242 | 0.239 | 0.301 | 0.279 | 0.208 | 0.169 | 0.122 | 0.237 | 0.235 | 0.152 | 0.117 | 0.131
4 | NCI-H1915 | 0.844 | 0.466 | 0.54 | 0.418 | 0.286 | 0.298 | 0.269 | 0.214 | 0.201 | 0.195 | 0.237 | 0.248 | 0.25 | 0.231 | 0.242 | 0.581 | 0.513 | 0.511 | 0.397 | 0.31
5 | NCI-H1975 | 0.49 | 0.283 | 0.311 | 0.214 | 0.2 | 0.316 | 0.272 | 0.337 | 0.252 | 0.288 | 0.863 | 0.764 | 0.782 | 0.559 | 0.505 | 0.347 | 0.293 | 0.255 | 0.228 | 0.259
6 | NCI-H1993 | 1.12 | 0.852 | 0.955 | 0.608 | 0.806 | 0.575 | 0.476 | 0.485 | 0.594 | 0.61 | 1.04 | 0.94 | 0.937 | 0.701 | 0.604 | 0.686 | 0.812 | 0.861 | 0.888 | 0.913
7 | NCI-H2009 | 1.11 | 0.775 | 0.678 | 0.642 | 0.373 | 0.265 | 0.21 | 0.192 | 0.183 | 0.185 | 0.729 | 0.714 | 0.585 | 0.558 | 0.469 | 0.981 | 0.579 | 0.524 | 0.466 | 0.319
